± gives the standard deviation of the averaged measurements.
Legend:
Details in all cases: 72 h
[1] = tested on: HepG2; experiment: drug sensitivity score (DSS) for viability; higher = more toxic; extreme values may be limits of the assay
[2] = tested on: Caco-2; experiment: as above
[3] = tested on: U2OS; experiment: as above
[4] = tested on: Calu-3; experiment: as above
[5] = tested on: Vero E6; experiment: as above
[6] = tested on: HepG2; experiment: cell viability relative to DMSO; higher = less toxic
[7] = tested on: Caco-2; experiment: as above
[8] = tested on: U2OS; experiment: as above
[9] = tested on: Calu-3; experiment: as above
[10] = tested on: Vero E6; experiment: as above
[11] = tested on: HepG2; experiment: relative viability EC50 (midpoint between 100% and the lowest measured viability); higher = less toxic
[12] = tested on: Caco-2; experiment: as above
[13] = tested on: U2OS; experiment: as above
[14] = tested on: Calu-3; experiment: as above
[15] = tested on: Vero E6; experiment: as above

| SMILES | drug sensitivity score [1] | drug sensitivity score [2] | drug sensitivity score [3] | drug sensitivity score [4] | drug sensitivity score [5] | cell viability ([6]; 1 nM) [%] | cell viability ([6]; 10 nM) [%] | cell viability ([6]; 100 nM) [%] | cell viability ([6]; 1000 nM) [%] | cell viability ([6]; 10000 nM) [%] | cell viability ([7]; 1 nM) [%] | cell viability ([7]; 10 nM) [%] | cell viability ([7]; 100 nM) [%] | cell viability ([7]; 1000 nM) [%] | cell viability ([7]; 10000 nM) [%] | cell viability ([8]; 1 nM) [%] | cell viability ([8]; 10 nM) [%] | cell viability ([8]; 100 nM) [%] | cell viability ([8]; 1000 nM) [%] | cell viability ([8]; 10000 nM) [%] | cell viability ([9]; 1 nM) [%] | cell viability ([9]; 10 nM) [%] | cell viability ([9]; 100 nM) [%] | cell viability ([9]; 1000 nM) [%] | cell viability ([9]; 10000 nM) [%] | cell viability ([10]; 1 nM) [%] | cell viability ([10]; 10 nM) [%] | cell viability ([10]; 100 nM) [%] | cell viability ([10]; 1000 nM) [%] | cell viability ([10]; 10000 nM) [%] | relative viability EC50 [11] [µM] | relative viability EC50 [12] [µM] | relative viability EC50 [13] [µM] | relative viability EC50 [14] [µM] | relative viability EC50 [15] [µM] |
| --- | --- | --- | --- | --- | --- | --- | --- | --- | --- | --- | --- | --- | --- | --- | --- | --- | --- | --- | --- | --- | --- | --- | --- | --- | --- | --- | --- | --- | --- | --- | --- | --- | --- | --- | --- |
| CC1(C)S[C@@H]2[C@H](NC(=O)Cc3ccccc3)C(=O)N2[C@H]1C(=O)O [benzylpenicillin] | 0 | 0 | 0 | 0 | 0 | 95.9 | 94 | 116 | 99 | 98.2 | 80.1 | 101 | 97.6 | 95.3 | 106 | 96.6 | 101 | 101 | 104 | 104 | 88.5 | 104 | 98.8 | 93.4 | 94.2 | 99.5 | 97 | 99 | 98 | 107 | > 10 | > 10 | > 10 | > 10 | > 10 |
| CCCCOC(=O)c1cc2c(cn1)[nH]c1ccccc12 [beta-CCB] | 0 | 0.1 | 0 | 0 | 0 | 117 | 118 | 105 | 98.4 | 96 | 95.1 | 95.5 | 106 | 94.9 | 88.9 | 102 | 111 | 99.3 | 105 | 96 | 92.2 | 93 | 107 | 106 | 91.5 | 99.5 | 97.3 | 101 | 98.7 | 102 | > 10 | > 10 | > 10 | > 10 | > 10 |
| CC(C)(C)[C@]1(O)CC2OC(=O)CC23C(=O)OC2OC(=O)[C@H](O)C231 (stereo not given in full) [bilobalide] | 0 | 0 | 0 | 0 | 0 | 95.1 | 97.1 | 104 | 117 | 108 | 98 | 97.6 | 97.2 | 107 | 89.7 | 94.7 | 104 | 94 | 98.5 | 97.7 | 101 | 98.9 | 109 | 108 | 116 | 104 | 104 | 105 | 96.6 | 103 | > 10 | > 10 | > 10 | > 10 | > 10 |
| CCN1CCN(c2cc(-c3ccc(F)cc3)c3c(n2)CCCCCC3)CC1 [blonanserin] | 0 | 0 | 0 | 0 | 0 | 95.1 | 88 | 92.3 | 92.9 | 92.9 | 94 | 108 | 98.3 | 102 | 95.5 | 100 | 97.3 | 96.4 | 103 | 92.9 | 89.4 | 93.4 | 94.5 | 111 | 92.7 | 98.2 | 101 | 95 | 93.2 | 102 | > 10 | > 10 | > 10 | > 10 | > 10 |
| O=C1C=Cc2cc(Br)ccc2C1=O [bonaphthone] | 0 | 0 | 0.1 | 0.8 | 0 | 101 | 117 | 97.5 | 107 | 94.2 | 87.2 | 86.3 | 97.9 | 102 | 94.4 | 101 | 96.1 | 103 | 101 | 85.6 | 116 | 104 | 94.3 | 88 | 99.1 | 95.5 | 98.6 | 93.5 | 99.5 | 102 | > 10 | > 10 | > 10 | > 10 | > 10 |
| CCCC[C@H](NC(C)=O)C(=O)N[C@H]1CC(=O)NCCCC[C@@H](C(=O)O)NC(=O)[C@H](Cc2c[nH]c3ccccc23)NC(=O)[C@H](CCCNC(=N)N)NC(=O)[C@@H](Cc2ccccc2)NC(=O)[C@H](Cc2c[nH]cn2)NC1=O [bremelanotide] | 0 | 0 | 0 | 0 | 0 | 115 | 118 | 95.7 | 102 | 98.9 | 114 | 94.4 | 85.7 | 90.8 | 117 | 99.9 | 102 | 95 | 104 | 101 | 99.1 | 104 | 90.8 | 100 | 96.2 | 100 | 102 | 108 | 99.3 | 107 | > 10 | > 10 | > 10 | > 10 | > 10 |
| O=C(NCc1ccccc1)OCCO [buramate] | 1 | 0 | 0 | 0 | 0 | 106 | 97.8 | 104 | 86.8 | 85.8 | 96.1 | 105 | 89.9 | 102 | 88.1 | 99.5 | 100 | 99.7 | 100 | 100 | 99.7 | 97.3 | 95.8 | 94.9 | 91.5 | 100 | 102 | 111 | 92 | 101 | > 10 | > 10 | > 10 | > 10 | > 10 |
| C[S+](C)CC[C@H](N)C(=O)O [cabagin] | 0 | 0 | 0 | 0 | 0 | 95.6 | 99.5 | 103 | 102 | 98.5 | 90.6 | 97.6 | 109 | 97.3 | 99.6 | 97.9 | 92.3 | 101 | 94.7 | 100 | 103 | 84.8 | 85.1 | 86.3 | 103 | 92.1 | 99.5 | 85.3 | 101 | 108 | > 10 | > 10 | > 10 | > 10 | > 10 |
| O=C([O-])C(O)[C@H](O)[C@@H](O)[C@H](O)[C@H](O)CO.O=C([O-])C(O)[C@H](O)[C@@H](O)[C@H](O)[C@H](O)CO.[Ca+2] (stereo not given in full) [calcium-gluceptate] | 0 | 0 | 0 | 0 | 0 | 100 ± 12 | 95.1 ± 23 | 103 ± 6.7 | 100 ± 4 | 100 ± 8 | 95.7 ± 8 | 93.6 ± 0.71 | 92.9 ± 8.3 | 98.8 ± 2.1 | 103.5 ± 0.14 | 98.9 | 89.9 | 101 | 95.3 | 106 | 138 ± 44 | 99 ± 6.2 | 101 ± 7.8 | 94.2 ± 20 | 97.4 ± 1.1 | 97.2 ± 7.6 | 85.1 ± 15 | 91.5 ± 2.7 | 82.3 ± 16 | 108.3 ± 0.49 | > 10 | > 10 | > 10 | > 10 | > 10 |
| CCCCCOC(=O)Nc1nc(=O)n([C@@H]2O[C@H](C)[C@@H](O)[C@H]2O)cc1F [capecitabine] | 0 | 0 | 0 | 0 | 0 | 97 | 104 | 104 | 99.9 | 96.3 | 107 | 110 | 103 | 96.1 | 106 | 96.7 | 103 | 94.3 | 92.6 | 101 | 99 | 110 | 91.8 | 98.6 | 101 | 102 | 101 | 99.7 | 95 | 95.6 | > 10 | > 10 | > 10 | > 10 | > 10 |
| C=CC1=C(C(=O)O)N2C(=O)[C@@H](NC(=O)/C(=N\O)c3csc(N)n3)[C@H]2SC1 [cefdinir] | 0 | 0 | 0 | 0 | 0 | 110 | 92.9 | 101 | 93.1 | 97.5 | 100 | 98.9 | 90.3 | 101 | 99.2 | 94 | 104 | 94.8 | 102 | 100 | 101 | 91.8 | 92.3 | 102 | 101 | 104 | 100 | 99.8 | 97.7 | 99.9 | > 10 | > 10 | > 10 | > 10 | > 10 |
| CO/N=C(\C(=O)N[C@@H]1C(=O)N2C(C(=O)O)=CCS[C@H]12)c1csc(N)n1 [ceftizoxim] | 0 | 0 | 0 | 0 | 0 | 97.5 | 96.1 | 107 | 103 | 103 | 89.5 | 100 | 92.1 | 103 | 95.7 | 97.7 | 99.2 | 94.5 | 98.8 | 98.7 | 97.2 | 93.6 | 103 | 105 | 93.4 | 102 | 99.2 | 95.2 | 95.6 | 105 | > 10 | > 10 | > 10 | > 10 | > 10 |
| CC(C)(O)C(Cl)(Cl)Cl [chlorobutanol] | 0 | 0 | 0 | 0 | 0 | 110 | 96.8 | 105 | 96.1 | 110 | 95 | 107 | 98.7 | 85.2 | 98.1 | 99.7 | 101 | 96.5 | 98.3 | 96.5 | 105 | 107 | 104 | 110 | 98.9 | 102 | 96.9 | 100 | 102 | 102 | > 10 | > 10 | > 10 | > 10 | > 10 |
| C=C1CC[C@H](O)C/C1=C/C=C1\CCC[C@]2(C)[C@@H]([C@H](C)CCCC(C)C)CC[C@@H]12 [cholecalciferol] | 0 | 0 | 0 | 0 | 0 | 90.3 | 82.4 | 92.8 | 93.4 | 84.6 | 95.6 | 88.2 | 101 | 103 | 144 | 94.6 | 103 | 96.4 | 100 | 99.4 | 100 | 102 | 96.5 | 108 | 95.5 | 92.1 | 85.5 | 102 | 93.8 | 120 | > 10 | > 10 | > 10 | > 10 | > 10 |

Source: the supplement of paper PMC13380429
